The values that follow come from PubChem BioAssay (NCI).

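Growth conditions: 96-well plates. Treatment: test compound, 48 hours, 5 concentrations. Analysis: linear interpolation between bracketing concentrations; unreached endpoints set to highest concentration. GI50: concentration for 50% inhibition of growth. At the TGI there is no net growth.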 Where only a bound is given, the exact number is not on record here.

The test system of the first assay is HT29 colon. Kind of assay: NCI-60 cell line screen, 48 h.
For `O=C(Cl)C1=C(c2ccccc2)C1c1ccccc1` (stereo unspecified), the TGI was more than 100 µM.
For `O=C(/C=C/c1cccc(O)c1)c1cccc(-n2cc(-c3ccc4ccccc4c3)[nH]c2=O)c1`, the GI50 is 1.53 µM and the TGI turned out to be 2.87 µM.
On the same counts, the results for `c1cnn2ncc(-c3ccnc(Nc4ccc5c(c4)OCCO5)n3)c2c1` are 0.0691 µM and 0.358 µM.
Take `COc1ccc2[nH]c(-c3ccc(O)cc3)cc(=O)c2c1`: the TGI was 8.69 µM.
Regarding `Cc1cc(C)n(C2=NS(=O)(=O)c3ccccc3N2C)n1`, the TGI was more than 100 µM.
Still for that read-out and setting: in the case of `COc1ccc2c(NCCCCCCNc3c4ccccc4nc4cc(OC)ccc34)c3ccccc3nc2c1` it was 0.486 µM.
`COc1cccc2c(=O)c3c(sc12)c(NCCCNCCO)nc1ccccc13`: the GI50 was 1.54 µM and the TGI was determined as 3.75 µM.
Compound `O=C(O)c1ccccc1C(=O)c1ccc2c(c1)Cc1ccccc1-2` displayed a TGI of more than 100 µM.
Regarding `CSc1ccc(N(C)c2nc(C)nc3c2CCC3)cc1`, the GI50 was less than 0.01 µM and the TGI is 11.1 µM.
In turn, `CN1c2ccccc2SC2C(c3ccccc3)=NOC21` (stereo unspecified) came in with a TGI of more than 100 µM.
As to `O=[N+]([O-])c1ccc(-c2cc3c(Nc4ccc(Cl)c(C(F)(F)F)c4)ncnc3s2)cc1`, the GI50 was 1.49 µM and the TGI is more than 100 µM.
As to `CCOC(=O)N1CCN(CCCCCOc2ccccc2C2CCCCC2)CC1`, the GI50 is 3.08 µM and the TGI was 12 µM.
Turning to `CC(C)(C)NCC(COc1ccc([N+](=O)[O-])cc1)OP(c1ccccc1)c1ccccc1` (stereo unspecified), the TGI is more than 100 µM.
Take `CCNCCNc1cc(-c2ccc(C#N)cc2)c(C#N)c2nc3ccccc3n12`: the GI50 is 3.1 µM and the TGI stood at 9.82 µM.
The compound `Cc1cccc(C)c1N1C(=O)C(=O)C(c2nc3ccccc3s2)C(=Nc2cccc3c(=O)[nH][nH]c(=O)c23)C1=O` (stereo unspecified) displayed a TGI of more than 100 µM.
For the compound `[2H]c1nc(=Nc2cc(NC(=O)C=C)c(N(C)CCN(C)C)cc2OC)[nH]c(-c2cn(C([2H])([2H])[2H])c3ccccc23)c1[2H]`, the GI50 was 1.69 µM and the TGI came to 3.26 µM.
Compound `Cn1c(=O)nc2n(-c3ccc(Cl)c(C(F)(F)F)c3)c3ccccc3nc-2c1=O` registered a TGI of 64.8 µM.

The test system of another assay is MOLT-4 leukemia. Briefly: NCI-60 cell line screen, 48 h.
Consider `O=C(Cl)C1=C(c2ccccc2)C1c1ccccc1` (stereo unspecified), for which the TGI is more than 100 µM.
Turning to `O=C(/C=C/c1cccc(O)c1)c1cccc(-n2cc(-c3ccc4ccccc4c3)[nH]c2=O)c1`, the GI50 was 1.27 µM and the TGI was 5.24 µM.
With `c1cnn2ncc(-c3ccnc(Nc4ccc5c(c4)OCCO5)n3)c2c1`, the GI50 was 0.0664 µM and the TGI was 0.622 µM.
`COc1ccc2[nH]c(-c3ccc(O)cc3)cc(=O)c2c1` showed a TGI of 79.4 µM.
As for `Cc1cc(C)n(C2=NS(=O)(=O)c3ccccc3N2C)n1`, the TGI is more than 100 µM.
For `COc1cccc2c(=O)c3c(sc12)c(NCCCNCCO)nc1ccccc13`, the GI50 was 1.58 µM and the TGI was 3.31 µM.
Compound `O=C(O)c1ccccc1C(=O)c1ccc2c(c1)Cc1ccccc1-2` yielded a TGI of more than 100 µM.
With `CSc1ccc(N(C)c2nc(C)nc3c2CCC3)cc1`, the GI50 is less than 0.01 µM and the TGI was determined as 25.4 µM.
The like results for `O=C1/C(=C/c2ccc([N+](=O)[O-])cc2)COc2ccc(O)cc21` were, in that order, 3.11 µM and 37.6 µM.
In turn, `CN1c2ccccc2SC2C(c3ccccc3)=NOC21` (stereo unspecified) registered a TGI of more than 100 µM.
As for `CCOC(=O)N1CCN(CCCCCOc2ccccc2C2CCCCC2)CC1`, the GI50 was 2.92 µM and the TGI was found to be 13 µM.
As to `O=C1c2ccccc2-c2c1c1ccccc1c(=O)n2CCNCCn1c2c(c3ccccc3c1=O)C(=O)c1ccccc1-2`, the GI50 is 4.84 µM and the TGI is 12.8 µM.
Turning to `CC(C)(C)NCC(COc1ccc([N+](=O)[O-])cc1)OP(c1ccccc1)c1ccccc1` (stereo unspecified), the TGI was found to be 49.6 µM.
In turn, `Cc1cccc(C)c1N1C(=O)C(=O)C(c2nc3ccccc3s2)C(=Nc2cccc3c(=O)[nH][nH]c(=O)c23)C1=O` (stereo unspecified) had a TGI of more than 100 µM.
Turning to `[2H]c1nc(=Nc2cc(NC(=O)C=C)c(N(C)CCN(C)C)cc2OC)[nH]c(-c2cn(C([2H])([2H])[2H])c3ccccc23)c1[2H]`, the GI50 was 1.14 µM and the TGI was 2.86 µM.
With `Cn1c(=O)nc2n(-c3ccc(Cl)c(C(F)(F)F)c3)c3ccccc3nc-2c1=O`, the TGI is more than 100 µM.

The subject of a further assay is CCRF-CEM leukemia. Briefly: NCI-60 cell line screen, 48 h.
`O=C(Cl)C1=C(c2ccccc2)C1c1ccccc1` (stereo unspecified) registered a TGI of more than 100 µM.
As to `O=C(/C=C/c1cccc(O)c1)c1cccc(-n2cc(-c3ccc4ccccc4c3)[nH]c2=O)c1`, the GI50 was 2.03 µM and the TGI is more than 100 µM.
The like results for `c1cnn2ncc(-c3ccnc(Nc4ccc5c(c4)OCCO5)n3)c2c1` were, in that order, 0.0879 µM and more than 25 µM.
Compound `COc1ccc2[nH]c(-c3ccc(O)cc3)cc(=O)c2c1` yielded a TGI of 21.9 µM.
For the compound `Cc1cc(C)n(C2=NS(=O)(=O)c3ccccc3N2C)n1`, the TGI was more than 100 µM.
`COc1ccc2c(NCCCCCCNc3c4ccccc4nc4cc(OC)ccc34)c3ccccc3nc2c1` displayed a TGI of 0.549 µM.
Consider `COc1cccc2c(=O)c3c(sc12)c(NCCCNCCO)nc1ccccc13`, for which the GI50 is 1.53 µM and the TGI stood at 3.18 µM.
The like results for `CSc1ccc(N(C)c2nc(C)nc3c2CCC3)cc1` were, in that order, less than 0.01 µM and 94.7 µM.
The like results for `O=C1/C(=C/c2ccc([N+](=O)[O-])cc2)COc2ccc(O)cc21` were, in that order, 0.647 µM and 3.29 µM.
Compound `CN1c2ccccc2SC2C(c3ccccc3)=NOC21` (stereo unspecified) yielded a TGI of more than 100 µM.
For the compound `O=[N+]([O-])c1ccc(-c2cc3c(Nc4ccc(Cl)c(C(F)(F)F)c4)ncnc3s2)cc1`, the GI50 was 1.29 µM and the TGI was more than 100 µM.
